Data on two substances can be found in patent EP0450100A1, “PHYSIOLOGICALLY ACTIVE PEPTIDE” (MEIJI SEIKA KAISHA LTD., priority 1989, dated 1991).

The test has as its system canine femoral artery. Put plainly: Influence of the peptides on the blood flow passing through canine femoral artery (VIP bioassay method of Said and Mutt). The note with it: anesthetized beagles; 200 p mol/kg injected into the femoral artery; 0.5 to 4 minutes after injection; conclusion from Table 1 and Table 2. In kind it is in vivo. The protocol: The above-mentioned influence was estimated according to the VIP bioassay method proposed by Said and Mutt [see "Nature" 225, 863-864 (1970)]. After three mature beagles having the body weight of 10 kg were fasted for 18 hours, they were anesthetized with thiamylal (10 mg/kg) and Nembutal ([…]). During the experiment, physiological saline was continuously injected (2 mℓ/min.) into a vein of each beagle and the body temperature of the beagle was maintained at 37-38°C by an electric heater. The femoral artery was surgically exposed, and a polyethylene tube filled with heparin-added physiological saline was inserted in and fixed to a muscle branch of the femoral artery so that the polyethylene tube could be used as an injection route for each peptide under test. A probe of an electro-magnetic blood flowmeter was attached to the femoral artery on a peripheral side of the muscle branch so that the average flow rate of blood through the artery was recorded as time-dependent variations on a polygraphy.
A solution of 10 µg of each tested polypeptide dissolved in 25 µℓ of 0.01 N HCl was diluted with physiological saline to prepare an injectable solution of the peptide. The injectable solution was injected into the artery by means of a peristaltic pump. Each peptide was injected at the dose of 200 p mol/kg. Tested peptides included the following compounds: Compound 1: Hd(1-33)-NH2 [the invention peptide of formula (Ic)] Compound 2: Hd(1-31)-NH₂ [the invention peptide of formula (Ia)] Compound 3: VIP(1-28)-Hd(29-35)-NH₂ [the invention peptide of formula (III)] Compound 4: VIP(1-11)-Hd(12-31)-NH₂ [the invention peptide of formula (II)]
Upon elapsed times of 0.5 minute, 1 minute, 2 minutes, 3 minutes and 4 minutes after the injection of each peptide under test,the blood flow rate was measured. Increases in the femoral arterial blood flow rate (mℓ/min.) as comapred with the basal level of blood flow rate were calculated. It may be added that the test results of Table 1 and those of Table 2 were obtained through tests which were conducted by the same method but at different times.

No end group written: not given here.

“HSDAIFTQQYSKLLAKLALQKYLASILGSRT-NH2 [Compound 2, Hd(1-31)-NH₂]”: the “activity of increasing the blood flow rate (femoral arterial blood flow rate) compared with helodermin” value is recorded as “enhanced activity of increasing the blood flow rate over helodermin” and the “sustaining of the blood-flow-rate-increasing activity compared with helodermin” value was “effects of sustaining the blood-flow-rate-increasing activity in comparison with helodermin”.

For the substance “HSDAIFTQQYSKLLAKLALQKYLASILGSRTSP-NH2 [Compound 1, Hd(1-33)-NH₂]”, the “activity of increasing the blood flow rate (femoral arterial blood flow rate) compared with helodermin” value is reported as “enhanced activity of increasing the blood flow rate over helodermin” and the “sustaining of the blood-flow-rate-increasing activity compared with helodermin” value is “effects of sustaining the blood-flow-rate-increasing activity in comparison with helodermin”.
